{"source": "PubChem BioAssay (NCI)", "assay_in_all_cases": "NCI-60 cell line screen, 48 h", "key": {"SK-MEL-28 melanoma": {"tested_on": "SK-MEL-28 melanoma"}, "SNB-75 CNS": {"tested_on": "SNB-75 CNS"}, "OVCAR-5 ovarian": {"tested_on": "OVCAR-5 ovarian"}, "HCC-2998 colon": {"tested_on": "HCC-2998 colon"}, "MOLT-4 leukemia": {"tested_on": "MOLT-4 leukemia"}, "EKVX NSCLC": {"tested_on": "EKVX NSCLC"}, "A549 NSCLC": {"tested_on": "A549 NSCLC"}, "UACC-257 melanoma": {"tested_on": "UACC-257 melanoma"}, "NCI-H522 lung": {"tested_on": "NCI-H522 lung"}, "RXF-631 renal": {"tested_on": "RXF-631 renal"}, "DU-145 prostate": {"tested_on": "DU-145 prostate"}, "T-47D breast": {"tested_on": "T-47D breast"}, "SK-OV-3 ovarian": {"tested_on": "SK-OV-3 ovarian"}, "HT29 colon": {"tested_on": "HT29 colon"}, "U251 CNS": {"tested_on": "U251 CNS"}, "OVCAR-8 ovarian": {"tested_on": "OVCAR-8 ovarian"}, "HOP-18 NSCLC": {"tested_on": "HOP-18 NSCLC"}, "PC-3 prostate": {"tested_on": "PC-3 prostate"}, "BT-549 breast": {"tested_on": "BT-549 breast"}, "SNB-78 CNS": {"tested_on": "SNB-78 CNS"}, "DLD-1 colon": {"tested_on": "DLD-1 colon"}, "DMS 114 small cell lung": {"tested_on": "DMS 114 small cell lung"}, "SK-MEL-5 melanoma": {"tested_on": "SK-MEL-5 melanoma"}, "786-0 renal": {"tested_on": "786-0 renal"}, "SN12C renal": {"tested_on": "SN12C renal"}, "HOP-62 NSCLC": {"tested_on": "HOP-62 NSCLC"}, "RPMI-8226 leukemia": {"tested_on": "RPMI-8226 leukemia"}, "TK-10 renal": {"tested_on": "TK-10 renal"}, "LXFL 529 NSCLC": {"tested_on": "LXFL 529 NSCLC"}, "OVCAR-3 ovarian": {"tested_on": "OVCAR-3 ovarian"}, "K-562 leukemia": {"tested_on": "K-562 leukemia"}, "KM12 colon": {"tested_on": "KM12 colon"}, "HL-60(TB) leukemia": {"tested_on": "HL-60(TB) leukemia"}, "NCI-H226 lung": {"tested_on": "NCI-H226 lung"}, "SNB-19 CNS": {"tested_on": "SNB-19 CNS"}, "A498 renal": {"tested_on": "A498 renal"}, "CCRF-CEM leukemia": {"tested_on": "CCRF-CEM leukemia"}, "UACC-62 melanoma": {"tested_on": "UACC-62 melanoma"}, "NCI-H460 lung": {"tested_on": "NCI-H460 lung"}, "KM20L2 colon": {"tested_on": "KM20L2 colon"}, "HCT-15 colon": {"tested_on": "HCT-15 colon"}, "MDA-N": {"tested_on": "MDA-N"}, "MCF7 breast": {"tested_on": "MCF7 breast"}, "M14 melanoma": {"tested_on": "M14 melanoma"}, "COLO 205 colon": {"tested_on": "COLO 205 colon"}, "MALME-3M melanoma": {"tested_on": "MALME-3M melanoma"}, "IGROV1 ovarian": {"tested_on": "IGROV1 ovarian"}, "DMS 273 small cell lung": {"tested_on": "DMS 273 small cell lung"}, "SW-620 colon": {"tested_on": "SW-620 colon"}, "HCT-116 colon": {"tested_on": "HCT-116 colon"}, "SF-295 CNS": {"tested_on": "SF-295 CNS"}, "NCI/ADR-RES ovarian": {"tested_on": "NCI/ADR-RES ovarian"}, "CAKI-1 renal": {"tested_on": "CAKI-1 renal"}, "RXF 393 renal": {"tested_on": "RXF 393 renal"}, "OVCAR-4 ovarian": {"tested_on": "OVCAR-4 ovarian"}, "UO-31 renal": {"tested_on": "UO-31 renal"}, "ACHN renal": {"tested_on": "ACHN renal"}, "SF-539 CNS": {"tested_on": "SF-539 CNS"}, "XF 498 CNS": {"tested_on": "XF 498 CNS"}, "LOX IMVI melanoma": {"tested_on": "LOX IMVI melanoma"}, "NCI-H23 lung": {"tested_on": "NCI-H23 lung"}, "HOP-92 NSCLC": {"tested_on": "HOP-92 NSCLC"}, "SF-268 CNS": {"tested_on": "SF-268 CNS"}, "SK-MEL-2 melanoma": {"tested_on": "SK-MEL-2 melanoma"}}, "note": "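Exposure lasted 48 hours, with cells grown in 96-well plates and compounds tested at five concentrations. TGI: concentration producing complete growth inhibition.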", "data": [{"smiles": "O=C1c2cccc(NCCNCCO)c2C(=O)c2cccc(NCCNCCO)c21", "values": [{"measurement": "TGI", "setting": "SK-MEL-28 melanoma", "value": 5.88, "unit": "µM"}, {"measurement": "TGI", "setting": "SNB-75 CNS", "value": 3.03, "unit": "µM"}, {"measurement": "TGI", "setting": "OVCAR-5 ovarian", "value": 5.67, "unit": "µM"}, {"measurement": "TGI", "setting": "HCC-2998 colon", "value": 2.45, "unit": "µM"}, {"measurement": "TGI", "setting": "MOLT-4 leukemia", "value": 6.3, "unit": "µM"}, {"measurement": "TGI", "setting": "EKVX NSCLC", "value": 4.84, "unit": "µM"}, {"measurement": "TGI", "setting": "A549 NSCLC", "value": 7.78, "unit": "µM"}, {"measurement": "TGI", "setting": "UACC-257 melanoma", "value": 9.4, "unit": "µM"}, {"measurement": "TGI", "setting": "NCI-H522 lung", "value": 1.66, "unit": "µM"}, {"measurement": "TGI", "setting": "RXF-631 renal", "value": 16.4, "unit": "µM"}, {"measurement": "TGI", "setting": "DU-145 prostate", "value": 5.91, "unit": "µM"}, {"measurement": "TGI", "setting": "T-47D breast", "value": 4.26, "unit": "µM"}, {"measurement": "TGI", "setting": "SK-OV-3 ovarian", "value": 8.45, "unit": "µM"}, {"measurement": "TGI", "setting": "HT29 colon", "value": 3.54, "unit": "µM"}, {"measurement": "TGI", "setting": "U251 CNS", "value": 10.9, "unit": "µM"}, {"measurement": "TGI", "setting": "OVCAR-8 ovarian", "value": 5.97, "unit": "µM"}, {"measurement": "TGI", "setting": "HOP-18 NSCLC", "value": 7.79, "unit": "µM"}, {"measurement": "TGI", "setting": "PC-3 prostate", "value": 3.02, "unit": "µM"}, {"measurement": "TGI", "setting": "BT-549 breast", "value": 8.85, "unit": "µM"}, {"measurement": "TGI", "setting": "SNB-78 CNS", "value": 6.91, "unit": "µM"}, {"measurement": "TGI", "setting": "DLD-1 colon", "value": 12.6, "unit": "µM"}, {"measurement": "TGI", "setting": "DMS 114 small cell lung", "value": 1.41, "unit": "µM"}, {"measurement": "TGI", "setting": "SK-MEL-5 melanoma", "value": 3.39, "unit": "µM"}, {"measurement": "TGI", "setting": "786-0 renal", "value": 3.95, "unit": "µM"}, {"measurement": "TGI", "setting": "SN12C renal", "value": 5.82, "unit": "µM"}, {"measurement": "TGI", "setting": "HOP-62 NSCLC", "value": 4.14, "unit": "µM"}, {"measurement": "TGI", "setting": "RPMI-8226 leukemia", "value": "> 32.3", "unit": "µM"}, {"measurement": "TGI", "setting": "TK-10 renal", "value": 23.2, "unit": "µM"}, {"measurement": "TGI", "setting": "LXFL 529 NSCLC", "value": 2.95, "unit": "µM"}, {"measurement": "TGI", "setting": "OVCAR-3 ovarian", "value": 4.74, "unit": "µM"}, {"measurement": "TGI", "setting": "K-562 leukemia", "value": 15, "unit": "µM"}, {"measurement": "TGI", "setting": "KM12 colon", "value": 4.48, "unit": "µM"}, {"measurement": "TGI", "setting": "HL-60(TB) leukemia", "value": 5.19, "unit": "µM"}, {"measurement": "TGI", "setting": "NCI-H226 lung", "value": 3.51, "unit": "µM"}, {"measurement": "TGI", "setting": "SNB-19 CNS", "value": 5.53, "unit": "µM"}, {"measurement": "TGI", "setting": "A498 renal", "value": 7.44, "unit": "µM"}, {"measurement": "TGI", "setting": "CCRF-CEM leukemia", "value": 2.88, "unit": "µM"}, {"measurement": "TGI", "setting": "UACC-62 melanoma", "value": 3.81, "unit": "µM"}, {"measurement": "TGI", "setting": "NCI-H460 lung", "value": 7.43, "unit": "µM"}, {"measurement": "TGI", "setting": "KM20L2 colon", "value": 5.3, "unit": "µM"}, {"measurement": "TGI", "setting": "HCT-15 colon", "value": 19, "unit": "µM"}, {"measurement": "TGI", "setting": "MDA-N", "value": 1.55, "unit": "µM"}, {"measurement": "TGI", "setting": "MCF7 breast", "value": 10.3, "unit": "µM"}, {"measurement": "TGI", "setting": "M14 melanoma", "value": 3.57, "unit": "µM"}, {"measurement": "TGI", "setting": "COLO 205 colon", "value": 2.09, "unit": "µM"}, {"measurement": "TGI", "setting": "MALME-3M melanoma", "value": 3.65, "unit": "µM"}, {"measurement": "TGI", "setting": "IGROV1 ovarian", "value": 6.39, "unit": "µM"}, {"measurement": "TGI", "setting": "DMS 273 small cell lung", "value": 7.19, "unit": "µM"}, {"measurement": "TGI", "setting": "SW-620 colon", "value": 11, "unit": "µM"}, {"measurement": "TGI", "setting": "HCT-116 colon", "value": 4.77, "unit": "µM"}, {"measurement": "TGI", "setting": "SF-295 CNS", "value": 5.77, "unit": "µM"}, {"measurement": "TGI", "setting": "NCI/ADR-RES ovarian", "value": 30.9, "unit": "µM"}, {"measurement": "TGI", "setting": "CAKI-1 renal", "value": 4.56, "unit": "µM"}, {"measurement": "TGI", "setting": "RXF 393 renal", "value": 3.89, "unit": "µM"}, {"measurement": "TGI", "setting": "OVCAR-4 ovarian", "value": 2.49, "unit": "µM"}, {"measurement": "TGI", "setting": "UO-31 renal", "value": 25.9, "unit": "µM"}, {"measurement": "TGI", "setting": "ACHN renal", "value": 8.16, "unit": "µM"}, {"measurement": "TGI", "setting": "SF-539 CNS", "value": 2.74, "unit": "µM"}, {"measurement": "TGI", "setting": "XF 498 CNS", "value": 1.88, "unit": "µM"}, {"measurement": "TGI", "setting": "LOX IMVI melanoma", "value": 1.65, "unit": "µM"}, {"measurement": "TGI", "setting": "NCI-H23 lung", "value": 5.68, "unit": "µM"}, {"measurement": "TGI", "setting": "HOP-92 NSCLC", "value": 2.9, "unit": "µM"}, {"measurement": "TGI", "setting": "SF-268 CNS", "value": 2.15, "unit": "µM"}, {"measurement": "TGI", "setting": "SK-MEL-2 melanoma", "value": 2.77, "unit": "µM"}]}]}
